Entries after “also recorded” stand apart in the source; their conditions may differ. One block for each compound: values may come before it.
Columns and labels:
HDACs = details: background statement; cited from earlier work
[1] = mice, previously reported, cited from earlier work
[2] = Metabolic stability in human liver microsomes fortified with NADPH (Example 11); type: in vitro ADME; parameters: CLint scaled: dose or concentration left out as unconfirmed; details: for K (rate constant): 0.5 mg/mL human liver microsomes, 1 mM NADPH, pH 7.4, 37° C.; for Clhp (hepatic clearance) / metabolic stability / clearance in the liver, in words / intrinsic clearance (Clint) rate, fold higher than 7MI / intrinsic clearance (Clint) rate, fold higher than 8MI / CLint scaled: human liver microsomes; for metabolic stability / clearance in the liver, in words: comparison of 7MI, 8MI, BML-210, TSA; for intrinsic clearance (Clint) rate, fold higher than 7MI: ratio to 7MI; for intrinsic clearance (Clint) rate, fold higher than 8MI: ratio to 8MI; for CLint scaled: pH 7.4, from mono-exponential decay model, read-out: Clint (intrinsic clearance)
Description: Drug clearance is a measure of the ability of the body or an organ to eliminate a drug from the blood circulation. Systemic clearance is a measure of the ability of the entire body to eliminate the drug. Organ clearance is a measure of the ability of a particular organ (hepatic or renal) to eliminate the drug. For hepatic clearance, the liver is the major organ for drug metabolism and the key organ for drug clearance. Human liver microsomes (HLM) fortified with NADPH is a standard way to measure in vitro metabolism and predict in vivo clearance. CLint (intrinsic clearance) is the link between in vitro and in vivo studies, which can be estimated based on the mono-exponential decay model: Ct=C X e^−kt.
Human liver microsomes fortified with NADPH is a standard approach to evaluate metabolic stability mediated by CYP (cytochrome P450) enzymes in vitro. The reaction mixture (0.4 mL) contained 0.5 mg/mL human liver microsomes, 100 mM phosphate buffer (pH 7.4) and […] of test compounds. The mixture was first warmed up for 5 min in a 37° C. shaking water bath and then NADPH at a final concentration of 1 mM was added to initiate the reaction. Aliquots […] were taken at specified time points and mixed with ice-cold methanol (containing internal standard) to stop the reaction. The mixture was vortexed briefly and centrifuged for protein precipitation. An aliquot of […] supernatant was subject to LC-MS/MS analysis. The percentage of compound disappearance was used to calculate the rate of metabolism.

[3] = tested on: Neonatal Rat Ventricular Myocytes (NRVMs); assay: Serum (FBS)-induced hypertrophy of Neonatal Rat Ventricular Myocytes in vitro; type: cell-based; details: for viability: NRVMs (not shown); for order of potency for inhibitors / growth response to Fetal Bovine Serum / serum-stimulated myocyte growth (hypertrophy): NRVMs; for order of potency for inhibitors: FBS-induced growth; for growth response to Fetal Bovine Serum / serum-stimulated myocyte growth (hypertrophy): pre-treatment with a range of doses
Protocol: The cells were also treated with DMSO (light gray bars) or a vehicle (dark gray bars) as a negative control. The order of potency for inhibitors was DMSO<7MI<TSA<8MI. Viability was unchanged (not shown).
Next, the ability of 7MI and 8MI to inhibit hypertrophy in vitro was tested (FIG. 2A). […] However, fetal calf serum, which contained a rich variety of growth factors, was chosen as the most robust and multifactorial stimulus for cardiomyocyte growth available, reasoning that a similarly robust and powerful inhibitor would be required to block this hypertrophy.

SMILES: O=C(CCCCCN1C(=O)c2cccc3cccc(c23)C1=O)NO [Scriptaid]
HDAC inhibition range (HDACs): low nanomolar range

SMILES: CC(/C=C/C(=O)NO)=C\[C@@H](C)C(=O)c1ccc(N(C)C)cc1 [TSA, Trichostatin A, reference compound]
survival at the tolerated daily dosage ([1]; 1 mg/kg): not all of the mice survived | tolerated daily dosage [1]: 1 mg/kg | K (rate constant) [2]: 0.0088 min⁻¹ | Clhp (hepatic clearance) [2]: 0.378 L/h/kg | metabolic stability / clearance in the liver, in words [2]: metabolically cleared much faster than 7MI or 8MI | intrinsic clearance (Clint) rate, fold higher than 7MI [2]: 3.2 fold | intrinsic clearance (Clint) rate, fold higher than 8MI [2]: 1.9 fold | CLint scaled [2]: 0.543 L/h/kg | viability [3]: unchanged | order of potency for inhibitors [3]: DMSO<7MI<TSA<8MI | growth response to Fetal Bovine Serum / serum-stimulated myocyte growth (hypertrophy) [3]: depressed growth response | HDAC inhibition range (HDACs): low nanomolar range

K (rate constant) [2]: 0.0027 min⁻¹ | Clhp (hepatic clearance) [2]: 0.147 L/h/kg | CLint scaled [2]: 0.167 L/h/kg
SMILES: Nc1ccccc1NC(=O)CCCCCC(=O)Nc1ccc(Br)cc1 [7MI]
viability [3]: unchanged | order of potency for inhibitors [3]: DMSO<7MI<TSA<8MI | growth response to Fetal Bovine Serum / serum-stimulated myocyte growth (hypertrophy) [3]: sufficient to block myocyte hypertrophy; also recorded: depressed growth response

SMILES: Nc1ccccc1NC(=O)CCCCCCC(=O)Nc1ccccc1 [BML-210, reference compound]
K (rate constant) [2]: 0.0116 min⁻¹ | Clhp (hepatic clearance) [2]: 0.454 L/h/kg | metabolic stability / clearance in the liver, in words [2]: high clearance compound | intrinsic clearance (Clint) rate, fold higher than 7MI [2]: 4.3 fold | intrinsic clearance (Clint) rate, fold higher than 8MI [2]: 2.5 fold | CLint scaled [2]: 0.715 L/h/kg

Source: US20180028477A1, “TREATMENT OF CARDIAC REMODELING AND OTHER HEART CONDITIONS” (C & C BIOPHARMA, LLC, priority 2013, published 2018)
